Test results reported in ChEMBL document CHEMBL1145410 (Bioorg Med Chem Lett, 2007).

Assays:
[1] = molecular target: Dipeptidyl peptidase 8 (Homo sapiens, UniProt Q6V1X1); experiment: Inhibition of DPP8
[2] = molecular target: Dipeptidyl peptidase 9 (Homo sapiens, UniProt Q86TI2); experiment: Inhibition of DPP9
[3] = molecular target: Dipeptidyl peptidase 4 (Homo sapiens, UniProt P27487); experiment: Inhibition of DPP4
[4] = molecular target: Dipeptidyl peptidase 2 (Homo sapiens, UniProt Q9UHL4); experiment: Inhibition of QPP
[5] = Inhibition of rabbit calcium channel L type; design: species or system Oryctolagus cuniculus
[6] = molecular target: Cytochrome P450 2D6 (Homo sapiens, UniProt P10635); experiment: Inhibition of Cyp2D6; format: ADME
Chain of Cytochrome P450 2D6 (P10635 whole entry): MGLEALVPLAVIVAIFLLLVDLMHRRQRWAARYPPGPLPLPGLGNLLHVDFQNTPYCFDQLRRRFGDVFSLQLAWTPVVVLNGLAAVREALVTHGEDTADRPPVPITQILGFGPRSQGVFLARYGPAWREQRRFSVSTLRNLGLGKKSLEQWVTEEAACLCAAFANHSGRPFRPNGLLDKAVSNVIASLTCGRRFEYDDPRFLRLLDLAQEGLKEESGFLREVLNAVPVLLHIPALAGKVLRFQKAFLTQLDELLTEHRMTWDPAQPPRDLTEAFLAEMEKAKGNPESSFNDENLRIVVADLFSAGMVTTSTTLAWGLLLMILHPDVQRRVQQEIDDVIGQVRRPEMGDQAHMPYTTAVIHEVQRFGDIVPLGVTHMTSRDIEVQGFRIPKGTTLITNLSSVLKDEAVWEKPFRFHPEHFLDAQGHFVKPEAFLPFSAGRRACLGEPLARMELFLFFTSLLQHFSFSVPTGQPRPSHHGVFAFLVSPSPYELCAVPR

[7] = Plasma clearance in rat at 1 mg/kg iv or 2 mg/kg po; format: ADME, organism-based
[8] = Half life in rat at 1 mg/kg iv or 2 mg/kg po; format: ADME, organism-based; conditions: in vivo
[9] = Bioavailability iin rat at 1 mg/kg iv or 2 mg/kg po; format: ADME, organism-based; conditions: in vivo
[10] = molecular target: Voltage-gated inwardly rectifying potassium channel KCNH2 (Homo sapiens, UniProt Q12809); experiment: Inhibition of human ERG potassium channel
Chain of Voltage-gated inwardly rectifying potassium channel KCNH2 (Q12809 whole entry): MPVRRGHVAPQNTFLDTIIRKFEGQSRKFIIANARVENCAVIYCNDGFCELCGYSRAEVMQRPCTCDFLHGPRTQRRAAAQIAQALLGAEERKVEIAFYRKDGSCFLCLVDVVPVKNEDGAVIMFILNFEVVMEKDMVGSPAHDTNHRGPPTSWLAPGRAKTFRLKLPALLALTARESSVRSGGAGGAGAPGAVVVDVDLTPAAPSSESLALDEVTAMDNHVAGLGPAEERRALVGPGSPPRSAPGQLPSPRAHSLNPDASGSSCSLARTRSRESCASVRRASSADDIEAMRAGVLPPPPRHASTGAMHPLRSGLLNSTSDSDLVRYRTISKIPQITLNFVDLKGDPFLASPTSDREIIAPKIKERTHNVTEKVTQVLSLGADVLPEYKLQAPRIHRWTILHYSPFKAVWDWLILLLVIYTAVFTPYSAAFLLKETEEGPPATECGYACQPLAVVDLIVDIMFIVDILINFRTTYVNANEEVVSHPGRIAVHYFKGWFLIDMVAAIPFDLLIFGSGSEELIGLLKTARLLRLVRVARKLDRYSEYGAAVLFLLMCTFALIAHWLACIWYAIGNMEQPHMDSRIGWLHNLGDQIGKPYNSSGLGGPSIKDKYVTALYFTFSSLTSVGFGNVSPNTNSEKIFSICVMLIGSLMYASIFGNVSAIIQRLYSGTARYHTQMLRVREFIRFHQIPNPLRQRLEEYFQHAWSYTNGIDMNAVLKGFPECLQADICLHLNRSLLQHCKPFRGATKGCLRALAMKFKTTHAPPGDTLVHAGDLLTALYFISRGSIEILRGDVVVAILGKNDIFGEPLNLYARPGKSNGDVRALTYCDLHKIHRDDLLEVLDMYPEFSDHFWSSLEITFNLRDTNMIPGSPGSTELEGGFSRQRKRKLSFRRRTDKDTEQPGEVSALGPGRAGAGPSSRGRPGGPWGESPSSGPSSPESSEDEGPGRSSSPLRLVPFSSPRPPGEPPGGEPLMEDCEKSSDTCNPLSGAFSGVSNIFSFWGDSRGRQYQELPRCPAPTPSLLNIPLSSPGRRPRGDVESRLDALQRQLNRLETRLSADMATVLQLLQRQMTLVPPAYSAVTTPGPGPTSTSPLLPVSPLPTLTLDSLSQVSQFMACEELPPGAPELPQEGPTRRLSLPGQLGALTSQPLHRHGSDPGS

Chain of Dipeptidyl peptidase 4 (P27487 whole entry): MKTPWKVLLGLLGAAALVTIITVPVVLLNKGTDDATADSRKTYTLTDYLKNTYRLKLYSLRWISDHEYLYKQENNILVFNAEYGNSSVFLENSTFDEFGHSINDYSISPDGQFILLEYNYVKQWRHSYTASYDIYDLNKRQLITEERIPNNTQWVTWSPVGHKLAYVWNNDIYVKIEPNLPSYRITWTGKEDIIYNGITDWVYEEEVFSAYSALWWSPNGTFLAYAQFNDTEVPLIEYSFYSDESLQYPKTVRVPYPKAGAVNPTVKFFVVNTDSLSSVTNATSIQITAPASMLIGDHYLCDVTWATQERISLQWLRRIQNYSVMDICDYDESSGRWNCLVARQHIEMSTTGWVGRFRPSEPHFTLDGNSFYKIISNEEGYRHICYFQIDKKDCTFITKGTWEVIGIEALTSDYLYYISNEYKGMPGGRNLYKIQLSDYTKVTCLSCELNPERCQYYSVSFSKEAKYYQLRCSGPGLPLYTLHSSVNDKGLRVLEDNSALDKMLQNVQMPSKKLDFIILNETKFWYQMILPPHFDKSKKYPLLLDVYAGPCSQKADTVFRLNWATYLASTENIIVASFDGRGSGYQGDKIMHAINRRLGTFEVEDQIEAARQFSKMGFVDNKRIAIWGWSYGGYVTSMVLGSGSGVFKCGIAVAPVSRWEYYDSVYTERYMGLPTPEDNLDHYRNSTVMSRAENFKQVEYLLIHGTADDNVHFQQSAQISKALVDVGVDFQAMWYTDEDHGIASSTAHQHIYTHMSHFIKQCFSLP
Chain of Dipeptidyl peptidase 9 (Q86TI2 whole entry): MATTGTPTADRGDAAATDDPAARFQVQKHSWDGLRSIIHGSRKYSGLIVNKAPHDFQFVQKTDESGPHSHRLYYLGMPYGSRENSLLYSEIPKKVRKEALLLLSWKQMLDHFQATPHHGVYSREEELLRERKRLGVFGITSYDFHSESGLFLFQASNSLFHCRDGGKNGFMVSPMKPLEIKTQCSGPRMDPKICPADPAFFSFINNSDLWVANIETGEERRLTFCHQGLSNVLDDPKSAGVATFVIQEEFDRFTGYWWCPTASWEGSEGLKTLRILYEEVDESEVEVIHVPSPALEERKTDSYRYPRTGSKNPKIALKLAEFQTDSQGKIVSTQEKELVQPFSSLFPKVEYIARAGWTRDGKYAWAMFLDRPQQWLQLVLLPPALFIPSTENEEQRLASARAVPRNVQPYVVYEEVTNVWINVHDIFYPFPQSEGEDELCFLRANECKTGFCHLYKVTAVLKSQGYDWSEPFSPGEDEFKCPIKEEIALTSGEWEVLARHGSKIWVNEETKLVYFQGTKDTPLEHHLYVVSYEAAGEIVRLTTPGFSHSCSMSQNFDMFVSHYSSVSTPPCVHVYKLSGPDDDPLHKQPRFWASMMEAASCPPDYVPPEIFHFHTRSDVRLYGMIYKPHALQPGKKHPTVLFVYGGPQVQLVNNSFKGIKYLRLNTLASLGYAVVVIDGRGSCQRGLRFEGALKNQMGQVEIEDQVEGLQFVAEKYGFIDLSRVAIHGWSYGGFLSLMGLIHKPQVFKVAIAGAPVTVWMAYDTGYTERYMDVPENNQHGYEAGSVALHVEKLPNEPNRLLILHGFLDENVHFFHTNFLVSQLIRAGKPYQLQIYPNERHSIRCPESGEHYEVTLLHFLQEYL
Chain of Dipeptidyl peptidase 8 (Q6V1X1 whole entry): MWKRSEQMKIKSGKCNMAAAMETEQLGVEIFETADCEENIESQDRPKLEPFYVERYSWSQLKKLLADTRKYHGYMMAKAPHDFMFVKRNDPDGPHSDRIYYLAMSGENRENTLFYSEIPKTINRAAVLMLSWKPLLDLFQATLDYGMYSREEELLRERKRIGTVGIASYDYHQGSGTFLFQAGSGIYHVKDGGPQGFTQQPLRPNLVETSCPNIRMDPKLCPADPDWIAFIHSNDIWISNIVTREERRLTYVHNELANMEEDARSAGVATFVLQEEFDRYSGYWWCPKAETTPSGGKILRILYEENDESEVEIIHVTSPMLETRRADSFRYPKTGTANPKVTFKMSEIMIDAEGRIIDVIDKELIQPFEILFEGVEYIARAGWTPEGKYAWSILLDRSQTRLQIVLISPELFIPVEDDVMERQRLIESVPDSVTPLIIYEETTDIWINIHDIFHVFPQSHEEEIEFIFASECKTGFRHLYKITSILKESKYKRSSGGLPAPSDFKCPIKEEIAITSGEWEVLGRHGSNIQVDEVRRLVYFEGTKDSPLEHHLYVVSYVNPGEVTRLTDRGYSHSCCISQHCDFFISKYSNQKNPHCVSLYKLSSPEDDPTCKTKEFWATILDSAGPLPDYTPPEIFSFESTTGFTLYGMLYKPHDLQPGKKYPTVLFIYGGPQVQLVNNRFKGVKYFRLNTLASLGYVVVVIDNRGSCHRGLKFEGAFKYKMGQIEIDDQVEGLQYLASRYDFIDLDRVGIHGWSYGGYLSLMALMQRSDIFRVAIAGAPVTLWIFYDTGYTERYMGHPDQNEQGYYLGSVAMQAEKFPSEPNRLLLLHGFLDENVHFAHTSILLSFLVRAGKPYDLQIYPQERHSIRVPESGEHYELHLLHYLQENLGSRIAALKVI

Structure (SMILES) | IC50 [1] [µM] | IC50 [2] [µM] | IC50 [3] [µM] | IC50 [4] [µM] | IC50 [5] [µM] | IC50 [6] [µM] | clearance [7] [mL/min/kg] | half-life [8] [h] | bioavailability [9] [%] | IC50 [10] [µM]
N[C@H]1CN(c2ccc3nnc(C(F)(F)F)n3n2)CC[C@@H]1c1cc(F)c(F)cc1F | > 100 | 90 | 0.009 | 96 | – | – | – | – | – | –
N[C@H]1CN(c2cnc3nccnc3n2)CC[C@@H]1c1cc(F)c(F)cc1F.O=C(O)C(F)(F)F | 54 | > 100 | 0.013 | 93 | 4.1 | 11.6 | 62 | 1.4 | 45 | –
Cc1nnc2ccc(N3CC[C@H](c4cc(F)c(F)cc4F)[C@@H](N)C3)nn12.O=C(O)C(F)(F)F | > 100 | > 100 | 0.006 | 74 | 2 | – | 12 | 4.7 | 100 | –
N[C@H]1CN(c2ccc3nncn3n2)CC[C@@H]1c1cc(F)c(F)cc1F | > 100 | > 100 | 0.031 | > 100 | – | – | – | – | – | –
N[C@H]1CN(c2ccn3cnnc3n2)CC[C@@H]1c1cc(F)c(F)cc1F.O=C(O)C(F)(F)F | 30 | 43 | 0.026 | > 100 | – | 20.6 | 54 | 1.5 | 19 | –
N[C@H]1CN(c2ccc3nc(C(F)(F)F)nn3n2)CC[C@@H]1c1cc(F)c(F)cc1F | > 100 | > 100 | 0.005 | > 100 | 1 | 0.1 | – | – | – | 8.1
N[C@H]1CN(c2cccnc2)CC[C@@H]1c1cc(F)c(F)cc1F | 54 | 36 | 0.144 | 82 | – | – | – | – | – | –
N[C@H]1CN(c2ncccc2C(F)(F)F)CC[C@@H]1c1cc(F)c(F)cc1F | > 100 | > 100 | – | – | – | – | – | – | – | –
N[C@H]1CN(c2ccncn2)CC[C@@H]1c1cc(F)c(F)cc1F | 60 | 67 | 0.037 | > 100 | 26.9 | – | – | – | – | –
CCc1nnc2ccc(N3CC[C@H](c4cc(F)c(F)cc4F)[C@@H](N)C3)nn12 | – | – | – | 90 | – | – | – | – | – | –
N[C@H]1CN(c2cnc3cncnc3n2)CC[C@@H]1c1cc(F)c(F)cc1F | – | – | – | 87 | – | – | – | – | – | –
N[C@H]1CN(c2cccnn2)CC[C@@H]1c1cc(F)c(F)cc1F | 40 | 44 | 0.063 | > 100 | – | – | – | – | – | –
N[C@H]1CN(c2ccc3nc(=O)ccn3n2)CC[C@@H]1c1cc(F)c(F)cc1F.O=C(O)C(F)(F)F | > 100 | 19 | 0.0012 | > 100 | 84.6 | 55.4 | 35 | 1.6 | 12 | 100
Cc1cc(=O)n2nc(N3CC[C@H](c4cc(F)c(F)cc4F)[C@@H](N)C3)ccc2n1.O=C(O)C(F)(F)F | > 100 | > 100 | 0.008 | > 100 | 18.5 | 16.2 | 18 | 1.4 | 74 | 33.2

The next lines start with results.

IC50 [1] [µM] | IC50 [2] [µM] | IC50 [3] [µM] | IC50 [4] [µM] | IC50 [5] [µM] | IC50 [6] [µM] | clearance [7] [mL/min/kg] | half-life [8] [h] | bioavailability [9] [%] | Structure (SMILES) | IC50 [10] [µM]
28 | 32 | 0.008 | 9.9 | – | – | – | – | – | N[C@H]1CN(c2ccc3ncnc(C4CC4)c3n2)CC[C@@H]1c1cc(F)c(F)cc1F | –
5.8 | 9.6 | 0.014 | 40 | – | – | – | – | – | N#Cc1ccc(N2CC[C@H](c3cc(F)c(F)cc3F)[C@@H](N)C2)nc1 | –
33 | 58 | 0.09 | 54 | – | – | – | – | – | N[C@H]1CN(c2ncccn2)CC[C@@H]1c1cc(F)c(F)cc1F | –
34 | 38 | 0.058 | 50 | – | – | – | – | – | N[C@H]1CN(c2ccccn2)CC[C@@H]1c1cc(F)c(F)cc1F | –
10 | 13 | 0.054 | 21 | – | – | – | – | – | N[C@H]1CN(c2ccc3ccccc3n2)CC[C@@H]1c1cc(F)c(F)cc1F | –
43 | 35 | 0.125 | 46 | – | – | – | – | – | N[C@H]1CN(c2ccncc2)CC[C@@H]1c1cc(F)c(F)cc1F | –
– | – | – | 27 | – | – | – | – | – | N[C@H]1CN(c2cnc3ccccc3n2)CC[C@@H]1c1cc(F)c(F)cc1F | –
– | – | – | 28 | – | – | – | – | – | N[C@H]1CN(c2ccc(C(F)(F)F)cn2)CC[C@@H]1c1cc(F)c(F)cc1F | –
– | – | – | 15 | – | – | – | – | – | N[C@H]1CN(c2ccc3nnc(-c4ccc(F)cc4)n3n2)CC[C@@H]1c1cc(F)c(F)cc1F | –
> 100 | 21 | 0.111 | 5.3 | – | – | – | – | – | N[C@H]1CN(c2cccc(C(F)(F)F)n2)CC[C@@H]1c1cc(F)c(F)cc1F | –
49 | 75 | 0.022 | 64 | – | – | – | – | – | N[C@H]1CN(c2ccc3nc(C(F)(F)F)cn3n2)CC[C@@H]1c1cc(F)c(F)cc1F | –
80 | > 100 | 0.007 | 46 | – | – | – | – | – | Cc1nc2ccc(N3CC[C@H](c4cc(F)c(F)cc4F)[C@@H](N)C3)nc2c(=O)[nH]1 | –
> 100 | > 100 | 3.7 | 32 | – | – | – | – | – | N[C@H]1CN(c2nccc3ccccc23)CC[C@@H]1c1cc(F)c(F)cc1F | –
> 100 | 57 | 0.002 | 41 | – | – | – | – | – | Cn1c(C2CC2)nc2ccc(N3CC[C@H](c4cc(F)c(F)cc4F)[C@@H](N)C3)nc21 | –
76 | 40 | 0.082 | 33 | – | – | – | – | – | N[C@H]1CN(c2cnccn2)CC[C@@H]1c1cc(F)c(F)cc1F | –
– | – | – | 57 | – | – | – | – | – | Cn1nc2ccc(N3CC[C@H](c4cc(F)c(F)cc4F)[C@@H](N)C3)nn2c1=O | –
66 | > 100 | 0.13 | 58 | – | – | – | – | – | N[C@H]1CN(c2cnc3cccnc3n2)CC[C@@H]1c1cc(F)c(F)cc1F | –
33 | 39 | 0.21 | 5.5 | – | – | – | – | – | N[C@H]1CN(c2ccccc2)CC[C@@H]1c1cc(F)c(F)cc1F | –
25 | 50 | 0.007 | 35 | – | – | – | – | – | N[C@H]1CN(c2ccc3nccnc3n2)CC[C@@H]1c1cc(F)c(F)cc1F | –
